Measured values from PubChem BioAssay AID2060493 (Molecular Pharmacology Branch, DTP, NCI, 2025).

System: 616215-338-R-J1-PDC tumor spheroids, viability
Assay: Anticancer human tumor 616215-338-R-J1-PDC patient-derived colon adenocarcinoma cell line growth inhibition [GQUAD]
Details: spheroids with HUVEC and MSC; for IC50: curve of first compound; for viability, T/C: stronger effect = lower value
In short: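 Multi-cell-type spheroids of tumor cells with HUVEC and mesenchymal stem cells, treated with drug combinations. Concentrations descend in half-log steps from near clinical Cmax, or from 10 microM where Cmax is unknown; viability read-out.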

[1] = second compound 0.0316 µM, first compound 0.0316 µM
[2] = second compound 0.0316 µM, first compound 0.1 µM
[3] = second compound 0.0316 µM, first compound 0.316 µM
[4] = second compound 0.0316 µM, first compound 1 µM
[5] = second compound 0.0316 µM, first compound 3.16 µM
[6] = second compound 0.0316 µM, first compound 10 µM
[7] = second compound 0.1 µM, first compound 0.0316 µM
[8] = second compound 0.1 µM, first compound 0.1 µM
[9] = second compound 0.1 µM, first compound 0.316 µM
[10] = second compound 0.1 µM, first compound 1 µM
[11] = second compound 0.1 µM, first compound 3.16 µM
[12] = second compound 0.1 µM, first compound 10 µM
[13] = second compound 0.316 µM, first compound 0.0316 µM
[14] = second compound 0.316 µM, first compound 0.1 µM
[15] = second compound 0.316 µM, first compound 0.316 µM
[16] = second compound 0.316 µM, first compound 1 µM
[17] = second compound 0.316 µM, first compound 3.16 µM
[18] = second compound 0.316 µM, first compound 10 µM
[19] = second compound 1 µM, first compound 0.0316 µM
[20] = second compound 1 µM, first compound 0.1 µM
[21] = second compound 1 µM, first compound 0.316 µM
[22] = second compound 1 µM, first compound 1 µM
[23] = second compound 1 µM, first compound 3.16 µM
[24] = second compound 1 µM, first compound 10 µM
[25] = second compound 3.16 µM, first compound 0.0316 µM
[26] = second compound 3.16 µM, first compound 0.1 µM
[27] = second compound 3.16 µM, first compound 0.316 µM
[28] = second compound 3.16 µM, first compound 1 µM
[29] = second compound 3.16 µM, first compound 3.16 µM
[30] = second compound 3.16 µM, first compound 10 µM
[31] = second compound 10 µM, first compound 0.0316 µM
[32] = second compound 10 µM, first compound 0.1 µM
[33] = second compound 10 µM, first compound 0.316 µM
[34] = second compound 10 µM, first compound 1 µM
[35] = second compound 10 µM, first compound 3.16 µM
[36] = second compound 10 µM, first compound 10 µM
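Note: spheroids exposed to agents for 7 days before readout.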
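Throughout, for viability, T/C: percent viability relative to DMSO vehicle control wells taken as 100%.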

## CC(C)n1c(=O)n(C)c2cnc3cc(F)c(-c4ccc(OCCCN5CCCCC5)nc4)cc3c21 + Cc1[nH]c2ccc(F)cc2c1-c1nc2c3cccnc3c3ncccc3c2[nH]1
Second compound 0.0316 µM
  IC50: > 10000 nM
Second compound 0.1 µM
  IC50: > 10000 nM
Second compound 0.316 µM
  IC50: > 10000 nM
Second compound 1 µM
  IC50: > 10000 nM
Second compound 3.16 µM
  IC50: > 10000 nM
Second compound 10 µM
  IC50: > 10000 nM
[1]
  viability, T/C: 102%
[2]
  viability, T/C: 98.8%
[3]
  viability, T/C: 97.5%
[4]
  viability, T/C: 101%
[5]
  viability, T/C: 117%
[6]
  viability, T/C: 70.9%
[7]
  viability, T/C: 103%
[8]
  viability, T/C: 99.6%
[9]
  viability, T/C: 100%
[10]
  viability, T/C: 107%
[11]
  viability, T/C: 112%
[12]
  viability, T/C: 85.7%
[13]
  viability, T/C: 107%
[14]
  viability, T/C: 99.3%
[15]
  viability, T/C: 100%
[16]
  viability, T/C: 106%
[17]
  viability, T/C: 100%
[18]
  viability, T/C: 72.9%
[19]
  viability, T/C: 99%
[20]
  viability, T/C: 116%
[21]
  viability, T/C: 97.5%
[22]
  viability, T/C: 93.6%
[23]
  viability, T/C: 101%
[24]
  viability, T/C: 95.7%
[25]
  viability, T/C: 99%
[26]
  viability, T/C: 93.8%
[27]
  viability, T/C: 87.3%
[28]
  viability, T/C: 98.7%
[29]
  viability, T/C: 104%
[30]
  viability, T/C: 57.4%
[31]
  viability, T/C: 94.5%
[32]
  viability, T/C: 94.7%
[33]
  viability, T/C: 99.1%
[34]
  viability, T/C: 91.2%
[35]
  viability, T/C: 107%
[36]
  viability, T/C: 87%

## CC1COCCN1c1cc(C2(O)CC3CCC(C2)O3)c2cnn(-c3ccn[nH]3)c2n1 (stereo unspecified) + Cc1[nH]c2ccc(F)cc2c1-c1nc2c3cccnc3c3ncccc3c2[nH]1
Second compound 0.0316 µM
  IC50: 236 nM
Second compound 0.1 µM
  IC50: 226 nM
Second compound 0.316 µM
  IC50: 234 nM
Second compound 1 µM
  IC50: 222 nM
Second compound 3.16 µM
  IC50: 176 nM
Second compound 10 µM
  IC50: 120 nM
[1]
  viability, T/C: 95.4%
[2]
  viability, T/C: 78%
[3]
  viability, T/C: 40.1%
[4]
  viability, T/C: 30.6%
[5]
  viability, T/C: 28.8%
[6]
  viability, T/C: 25.9%
[7]
  viability, T/C: 90.2%
[8]
  viability, T/C: 83.9%
[9]
  viability, T/C: 35.6%
[10]
  viability, T/C: 31.1%
[11]
  viability, T/C: 23.8%
[12]
  viability, T/C: 17%
[13]
  viability, T/C: 91.8%
[14]
  viability, T/C: 61.5%
[15]
  viability, T/C: 42.4%
[16]
  viability, T/C: 40%
[17]
  viability, T/C: 26.1%
[18]
  viability, T/C: 19.9%
[19]
  viability, T/C: 99.5%
[20]
  viability, T/C: 59.7%
[21]
  viability, T/C: 47.4%
[22]
  viability, T/C: 32.7%
[23]
  viability, T/C: 23.2%
[24]
  viability, T/C: 19.3%
[25]
  viability, T/C: 92.4%
[26]
  viability, T/C: 71.8%
[27]
  viability, T/C: 27.2%
[28]
  viability, T/C: 31.7%
[29]
  viability, T/C: 25.7%
[30]
  viability, T/C: 16.4%
[31]
  viability, T/C: 88.4%
[32]
  viability, T/C: 50.8%
[33]
  viability, T/C: 36.1%
[34]
  viability, T/C: 30%
[35]
  viability, T/C: 20.8%
[36]
  viability, T/C: 20.2%

## Cn1ncnc1[C@H]1c2n[nH]c(=O)c3cc(F)cc(c23)N[C@@H]1c1ccc(F)cc1 + Cc1[nH]c2ccc(F)cc2c1-c1nc2c3cccnc3c3ncccc3c2[nH]1
Second compound 0.0316 µM
  IC50: > 316 nM
Second compound 0.1 µM
  IC50: > 316 nM
Second compound 0.316 µM
  IC50: > 316 nM
Second compound 1 µM
  IC50: > 316 nM
Second compound 3.16 µM
  IC50: > 316 nM
Second compound 10 µM
  IC50: > 316 nM
Second compound 0.0316 µM, first compound 0.000999 µM
  viability, T/C: 104%
Second compound 0.0316 µM, first compound 0.00316 µM
  viability, T/C: 98.2%
Second compound 0.0316 µM, first compound 0.00999 µM
  viability, T/C: 97%
[1]
  viability, T/C: 92.5%
Second compound 0.0316 µM, first compound 0.0999 µM
  viability, T/C: 97.1%
[3]
  viability, T/C: 94.7%
Second compound 0.1 µM, first compound 0.000999 µM
  viability, T/C: 106%
Second compound 0.1 µM, first compound 0.00316 µM
  viability, T/C: 89.1%
Second compound 0.1 µM, first compound 0.00999 µM
  viability, T/C: 94.2%
[7]
  viability, T/C: 102%
Second compound 0.1 µM, first compound 0.0999 µM
  viability, T/C: 105%
[9]
  viability, T/C: 87.4%
Second compound 0.316 µM, first compound 0.000999 µM
  viability, T/C: 92.7%
Second compound 0.316 µM, first compound 0.00316 µM
  viability, T/C: 103%
Second compound 0.316 µM, first compound 0.00999 µM
  viability, T/C: 92.9%
[13]
  viability, T/C: 103%
Second compound 0.316 µM, first compound 0.0999 µM
  viability, T/C: 83.3%
[15]
  viability, T/C: 95.3%
Second compound 1 µM, first compound 0.000999 µM
  viability, T/C: 100%
Second compound 1 µM, first compound 0.00316 µM
  viability, T/C: 95.7%
Second compound 1 µM, first compound 0.00999 µM
  viability, T/C: 91.2%
[19]
  viability, T/C: 104%
Second compound 1 µM, first compound 0.0999 µM
  viability, T/C: 96%
[21]
  viability, T/C: 95.6%
Second compound 3.16 µM, first compound 0.000999 µM
  viability, T/C: 101%
Second compound 3.16 µM, first compound 0.00316 µM
  viability, T/C: 97.3%
Second compound 3.16 µM, first compound 0.00999 µM
  viability, T/C: 85.6%
[25]
  viability, T/C: 93.2%
Second compound 3.16 µM, first compound 0.0999 µM
  viability, T/C: 106%
[27]
  viability, T/C: 87.3%
Second compound 10 µM, first compound 0.000999 µM
  viability, T/C: 93.3%
Second compound 10 µM, first compound 0.00316 µM
  viability, T/C: 95.4%
Second compound 10 µM, first compound 0.00999 µM
  viability, T/C: 88%
[31]
  viability, T/C: 78.5%
Second compound 10 µM, first compound 0.0999 µM
  viability, T/C: 116%
[33]
  viability, T/C: 78.6%
